# In PubChem BioAssay (NCI):
#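 Compound exposure: 48 hours, 5 concentrations, 96-well plates. GI50 is the concentration that inhibits growth by half. TGI marks complete inhibition of growth.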
# Key:
# Experiment in all cases: growth of human tumour cells (NCI), 48 h
# SW-620 colon = tested on: SW-620 colon
# OVCAR-3 ovarian = tested on: OVCAR-3 ovarian
# 786-0 renal = tested on: 786-0 renal
# SK-OV-3 ovarian = tested on: SK-OV-3 ovarian
# U251 CNS = tested on: U251 CNS
# BT-549 breast = tested on: BT-549 breast
# NCI-H23 lung = tested on: NCI-H23 lung
# CAKI-1 renal = tested on: CAKI-1 renal
# UO-31 renal = tested on: UO-31 renal
# SNB-75 CNS = tested on: SNB-75 CNS
# MALME-3M melanoma = tested on: MALME-3M melanoma
# RXF 393 renal = tested on: RXF 393 renal
# NCI-H460 lung = tested on: NCI-H460 lung
# LOX IMVI melanoma = tested on: LOX IMVI melanoma
# SF-539 CNS = tested on: SF-539 CNS
# MCF7 breast = tested on: MCF7 breast
# SK-MEL-2 melanoma = tested on: SK-MEL-2 melanoma
# PC-3 prostate = tested on: PC-3 prostate
# HOP-62 NSCLC = tested on: HOP-62 NSCLC
# NCI-H226 lung = tested on: NCI-H226 lung
# MDA-MB-231 breast = tested on: MDA-MB-231 breast
# SK-MEL-5 melanoma = tested on: SK-MEL-5 melanoma
# HL-60(TB) leukemia = tested on: HL-60(TB) leukemia
# SF-295 CNS = tested on: SF-295 CNS
# OVCAR-8 ovarian = tested on: OVCAR-8 ovarian
# TK-10 renal = tested on: TK-10 renal
# SR leukemia = tested on: SR leukemia
# SNB-19 CNS = tested on: SNB-19 CNS
# OVCAR-4 ovarian = tested on: OVCAR-4 ovarian
# MDA-MB-468 breast = tested on: MDA-MB-468 breast
# HCT-15 colon = tested on: HCT-15 colon
# M14 melanoma = tested on: M14 melanoma
# SN12C renal = tested on: SN12C renal
# CCRF-CEM leukemia = tested on: CCRF-CEM leukemia
# MDA-MB-435 = tested on: MDA-MB-435
# T-47D breast = tested on: T-47D breast
# IGROV1 ovarian = tested on: IGROV1 ovarian
# K-562 leukemia = tested on: K-562 leukemia
# RPMI-8226 leukemia = tested on: RPMI-8226 leukemia
# HCC-2998 colon = tested on: HCC-2998 colon
# UACC-62 melanoma = tested on: UACC-62 melanoma
# NCI/ADR-RES ovarian = tested on: NCI/ADR-RES ovarian
# NCI-H522 lung = tested on: NCI-H522 lung
# SK-MEL-28 melanoma = tested on: SK-MEL-28 melanoma
# UACC-257 melanoma = tested on: UACC-257 melanoma
# KM12 colon = tested on: KM12 colon
# EKVX NSCLC = tested on: EKVX NSCLC
# ACHN renal = tested on: ACHN renal
# HS 578T breast = tested on: HS 578T breast
# SF-268 CNS = tested on: SF-268 CNS
# A549 NSCLC = tested on: A549 NSCLC
# HCT-116 colon = tested on: HCT-116 colon
# DU-145 prostate = tested on: DU-145 prostate
# A498 renal = tested on: A498 renal
# HT29 colon = tested on: HT29 colon
# MOLT-4 leukemia = tested on: MOLT-4 leukemia
# HOP-92 NSCLC = tested on: HOP-92 NSCLC
# COLO 205 colon = tested on: COLO 205 colon
# OVCAR-5 ovarian = tested on: OVCAR-5 ovarian
smiles,measurement,setting,value
CC1(C)CC[C@]2(C(=O)O)CC[C@]3(C)C(=CCC4[C@@]5(C)C[C@@H](O)[C@@H]6OC(c7ccco7)OC[C@@]6(C)C5CC[C@]43C)C2C1 (stereo partly drawn),GI50,SW-620 colon,11.2 µM
same,TGI,SW-620 colon,25.4 µM
same,GI50,OVCAR-3 ovarian,9.25 µM
same,TGI,OVCAR-3 ovarian,23 µM
same,GI50,786-0 renal,18.9 µM
same,TGI,786-0 renal,64.7 µM
same,GI50,SK-OV-3 ovarian,27.1 µM
same,TGI,SK-OV-3 ovarian,> 100 µM
same,GI50,U251 CNS,1.47 µM
same,TGI,U251 CNS,16.9 µM
same,GI50,BT-549 breast,6.78 µM
same,TGI,BT-549 breast,21.4 µM
same,GI50,NCI-H23 lung,9.31 µM
same,TGI,NCI-H23 lung,23.2 µM
same,GI50,CAKI-1 renal,21.3 µM
same,TGI,CAKI-1 renal,83.3 µM
same,GI50,UO-31 renal,6.95 µM
same,TGI,UO-31 renal,21.1 µM
same,GI50,SNB-75 CNS,6.35 µM
same,TGI,SNB-75 CNS,30.2 µM
same,GI50,MALME-3M melanoma,0.191 µM
same,TGI,MALME-3M melanoma,0.894 µM
same,GI50,RXF 393 renal,13 µM
same,TGI,RXF 393 renal,26.5 µM
same,GI50,NCI-H460 lung,6.45 µM
same,TGI,NCI-H460 lung,19.9 µM
same,GI50,LOX IMVI melanoma,5.69 µM
same,TGI,LOX IMVI melanoma,19.1 µM
same,GI50,SF-539 CNS,13.3 µM
same,TGI,SF-539 CNS,26.4 µM
same,GI50,MCF7 breast,8.83 µM
same,TGI,MCF7 breast,36.4 µM
same,GI50,SK-MEL-2 melanoma,0.417 µM
same,TGI,SK-MEL-2 melanoma,13.7 µM
same,GI50,PC-3 prostate,9.27 µM
same,TGI,PC-3 prostate,> 100 µM
same,GI50,HOP-62 NSCLC,7.06 µM
same,TGI,HOP-62 NSCLC,28.7 µM
same,GI50,NCI-H226 lung,11.7 µM
same,TGI,NCI-H226 lung,36.1 µM
same,GI50,MDA-MB-231 breast,16.2 µM
same,TGI,MDA-MB-231 breast,32.3 µM
same,GI50,SK-MEL-5 melanoma,0.304 µM
same,TGI,SK-MEL-5 melanoma,1.2 µM
same,GI50,HL-60(TB) leukemia,9.31 µM
same,TGI,HL-60(TB) leukemia,43.4 µM
same,GI50,SF-295 CNS,5.3 µM
same,TGI,SF-295 CNS,19.1 µM
same,GI50,OVCAR-8 ovarian,10.3 µM
same,TGI,OVCAR-8 ovarian,61.5 µM
same,GI50,TK-10 renal,16.4 µM
same,TGI,TK-10 renal,68.9 µM
same,GI50,SR leukemia,9.92 µM
same,TGI,SR leukemia,51.4 µM
same,GI50,SNB-19 CNS,3.97 µM
same,TGI,SNB-19 CNS,21.8 µM
same,GI50,OVCAR-4 ovarian,16.6 µM
same,TGI,OVCAR-4 ovarian,63.4 µM
same,GI50,MDA-MB-468 breast,0.11 µM
same,TGI,MDA-MB-468 breast,6.03 µM
same,GI50,HCT-15 colon,3.32 µM
same,TGI,HCT-15 colon,15.8 µM
same,GI50,M14 melanoma,0.416 µM
same,TGI,M14 melanoma,16.8 µM
same,GI50,SN12C renal,11.8 µM
same,TGI,SN12C renal,26.2 µM
same,GI50,CCRF-CEM leukemia,5.21 µM
same,TGI,CCRF-CEM leukemia,30.3 µM
same,GI50,MDA-MB-435,0.475 µM
same,TGI,MDA-MB-435,15.4 µM
same,GI50,T-47D breast,15.6 µM
same,TGI,T-47D breast,> 100 µM
same,GI50,IGROV1 ovarian,11.7 µM
same,TGI,IGROV1 ovarian,28 µM
same,GI50,K-562 leukemia,4.81 µM
same,TGI,K-562 leukemia,> 100 µM
same,GI50,RPMI-8226 leukemia,5.62 µM
same,TGI,RPMI-8226 leukemia,71.2 µM
same,GI50,HCC-2998 colon,6.35 µM
same,TGI,HCC-2998 colon,20.4 µM
same,GI50,UACC-62 melanoma,0.312 µM
same,TGI,UACC-62 melanoma,12.5 µM
same,GI50,NCI/ADR-RES ovarian,6.62 µM
same,TGI,NCI/ADR-RES ovarian,32.3 µM
same,GI50,NCI-H522 lung,10.6 µM
same,TGI,NCI-H522 lung,28.1 µM
same,GI50,SK-MEL-28 melanoma,0.22 µM
same,TGI,SK-MEL-28 melanoma,15.7 µM
same,GI50,UACC-257 melanoma,0.208 µM
same,TGI,UACC-257 melanoma,0.913 µM
same,GI50,KM12 colon,5.84 µM
same,TGI,KM12 colon,23.4 µM
same,GI50,EKVX NSCLC,5.05 µM
same,TGI,EKVX NSCLC,21.9 µM
same,GI50,ACHN renal,0.111 µM
same,TGI,ACHN renal,14.5 µM
same,GI50,HS 578T breast,11.1 µM
same,TGI,HS 578T breast,45.2 µM
same,GI50,SF-268 CNS,10.7 µM
same,TGI,SF-268 CNS,31.8 µM
same,GI50,A549 NSCLC,3.2 µM
same,TGI,A549 NSCLC,20.2 µM
same,GI50,HCT-116 colon,5.01 µM
same,TGI,HCT-116 colon,18.4 µM
same,GI50,DU-145 prostate,11.6 µM
same,TGI,DU-145 prostate,85 µM
same,GI50,A498 renal,14.1 µM
same,TGI,A498 renal,30.8 µM
same,GI50,HT29 colon,12.8 µM
same,TGI,HT29 colon,41.5 µM
same,GI50,MOLT-4 leukemia,4.75 µM
same,TGI,MOLT-4 leukemia,33.7 µM
same,GI50,HOP-92 NSCLC,5.97 µM
same,TGI,HOP-92 NSCLC,22.7 µM
same,GI50,COLO 205 colon,0.11 µM
same,TGI,COLO 205 colon,0.263 µM
same,GI50,OVCAR-5 ovarian,16.4 µM
same,TGI,OVCAR-5 ovarian,30.6 µM
